Measurements as given in patent US7309494B2, “Peptides of the respiratory syncytial virus (RSV) G protein and their use in a vaccine” (Pierre Fabre Medicament, priority 2001, dated 2007).
“Also recorded” adds a separate entry of the source.

B1: ovalbumin (protein, UniProt P01012 2-386, looked up)
Ovalbumin: GSIGAASMEFCFDVFKELKVHHANENIFYCPIAIMSALAMVYLGAKDSTRTQINKVVRFDKLPGFGDSIEAQCGTSVNVHSSLRDILNQITKPNDVYSFSLASRLYAEERYPILPEYLQCVKELYRGGLEPINFQTAADQARELINSWVESQTNGIIRNVLQPSSVDSQTAMVLVNAIVFKGLWEKAFKDEDTQAMPFRVTEQESKPVQMMYQIGLFRVASMASEKMKILELPFASGTMSMLVLLPDEVSGLEQLESIINFEKLTEWTSSNVMEERKIKVYLPRMKMEEKYNLTSVLMAMGITDVFSSSANLSGISSAESLKISQAVHAAHAEINEAGREVVGSAEAGVDAASVSEEFRADHPFLFCIKHIATNAVLFFGRCVSP
notes: positive experimental control consisting of ovalbumin at 200 μg

Legend:
[1] = test system: RSV-A; assay: Anti-RSV-A antibody titer before and after immunization in naive mice; type: in vivo, Balb/c mice
Experimental: (§1) In order to test the immunogenicity of the G23a and G20a peptides, Balb/c mice were immunized with 6 or 1.5 μg of G2Na equivalent twice, on D0 and D14, intramuscularly.
(§2) Some mice were sensitized with RSV 20 days before the first immunization in order to make them seropositive with respect to RSV. A sample was taken from the mice before each immunization and the anti-G2Na, RSV-A and RSV-B antibody titers were determined.

[2] = test system: RSV-B; assay: Anti-RSV-B antibody titer before and after immunization in naive mice; type: in vivo; conditions: naive Balb/c mice, 6 or 1.5 μg G2Na equivalent i.m. on D0 and D14; after first immunization
Experimental: as §1, §2

[3] = test system: RSV-A; assay: Protection against an RSV-A challenge in immunized mice (viral titer 5 days after challenge); type: in vivo, Balb/c mice; conditions: naive mice
Experimental: as §1
Ten days after the final immunization, the mice were challenged with 10^5 pfu/50 μl of RSV-A. The viral titer was measured 5 days after the challenge.

[4] = Determination of the IHS (immediate hypersensitivity) in guinea pigs; type: in vivo; conditions: for death of the guinea pigs (dead/tested): i.m. D0 and D8 with 20% adjuphos, i.v. booster D21
Experimental: Guinea pigs are immunized on D0 and D8 with the various molecules adjuvented with 20% (v/v) adjuphos, given i.m. On D21, a booster is given with the various molecules, nonadjuvented, by i.v. The death of the guinea pigs is then evaluated.
A positive experimental control consisting of ovalbumin at 200 μg is included for each molecule tested (cf. table 3 below).

| Molecule | anti-RSV-A antibody response ([1]; naive Balb/c mice, 6 or 1.5 μg G2Na equivalent i.m. on D0 and D14, after first immunization) | immunogenicity in naive mice (summary) ([1]; naive mice) | anti-RSV-B antibody response [2] | protection of the pulmonary tract subsequent to challenge with RSV-A ([3]; challenge 10^5 pfu/50 μl RSV-A ten days after final immunization) | immunogenicity and protection compared with BBG2Na [3] | death of the guinea pigs (dead/tested) ([4]; 4 mg) | death of the guinea pigs (dead/tested) ([4]; 40 mg) | induction of IHS ([4]; guinea pigs, 6 animals tested) | death of the guinea pigs (dead/tested) ([4]; positive control T+, ovalbumin at 200 μg) |
| --- | --- | --- | --- | --- | --- | --- | --- | --- | --- |
| G20a: fragment of the G protein of RSV-A (140-190)-(144-158) of 69 amino acids, SEQ ID No.1 | develop anti-RSV-A and RSV-B antibody responses from the first immunization | immunogenic | develop anti-RSV-A and RSV-B antibody responses from the first immunization | induces protection of the pulmonary tract; also recorded: protective | comparable to those observed with BBG2Na | 0/6 | 0/6 | does not induce any IHS in 6/6 animals tested |  |
| B1 |  |  |  |  |  |  |  |  | 5/6 |
